In US9249145B2, “Heterocyclic derivatives of pyrazol-4-yl-pyrrolo[2,3-d]pyrimidines as janus kinase inhibitors” (Incyte Holdings Corporation, priority 2009, dated 2016):
Counter-ions that a name gives are not always drawn. Like-named read-outs stand apart in the source and are kept apart here.

Assays:
[1] = target: T1, human JAK1 (a.a. 837-1142) (Homo sapiens, UniProt P23458); experiment: In vitro JAK kinase assay (HTRF, phosphorylation of biotinylated peptide), JAK1; format: biochemical
T1 construct: The catalytic domains of human JAK1 (a.a. 837-1142); His tag (N); made in house; host or cells: insect cells (baculovirus)
T1 sequence (P23458 849-1154): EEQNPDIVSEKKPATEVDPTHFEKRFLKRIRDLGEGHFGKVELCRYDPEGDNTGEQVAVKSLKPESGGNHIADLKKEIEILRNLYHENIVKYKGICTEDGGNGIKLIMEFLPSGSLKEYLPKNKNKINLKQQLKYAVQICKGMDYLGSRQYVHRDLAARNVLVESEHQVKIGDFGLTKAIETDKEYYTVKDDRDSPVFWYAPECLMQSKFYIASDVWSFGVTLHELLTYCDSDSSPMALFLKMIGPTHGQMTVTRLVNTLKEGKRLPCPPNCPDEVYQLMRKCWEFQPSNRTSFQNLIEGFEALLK
Protocol: (§1) Compounds herein were tested for inhibitory activity of JAK targets according to the following in vitro assay described in Park et al., Analytical Biochemistry 1999, 269, 94-104. The catalytic domains of human JAK1 (a.a. 837-1142), Jak2 (a.a. 828-1132) and Jak3 (a.a. 781-1124) with an N-terminal His tag were expressed using baculovirus in insect cells and purified. The catalytic activity of JAK1, JAK2 or JAK3 was assayed by measuring the phosphorylation of a biotinylated peptide. The phosphorylated peptide was detected by homogenous time resolved fluorescence (HTRF). IC50s of compounds were measured for each kinase in the 40 microL reactions that contain the enzyme, ATP and 500 nM peptide in 50 mM Tris (pH 7.8) buffer with 100 mM NaCl, 5 mM DTT, and 0.1 mg/mL (0.01%) BSA. The ATP concentration in the reactions was 90 μM for Jak1, 30 μM for Jak2 and 3 μM for Jak3 for Km conditions. For the 1 mM IC50 measurements, ATP concentration in the reactions was 1 mM. Reactions were carried out at room temperature for 1 hr and then stopped with 20 μL 45 mM EDTA, 300 nM SA-APC, 6 nM Eu-Py20 in assay buffer (Perkin Elmer, Boston, Mass.). Binding to the Europium labeled antibody took place for 40 minutes and HTRF signal was measured on a Fusion plate reader (Perkin Elmer, Boston, Mass.). See Tables 1, 2, 3, and 4 for data related to compounds of the invention.

[2] = target: T2, Jak2 (a.a. 828-1132) (Homo sapiens, UniProt O60674); experiment: In vitro JAK kinase assay (HTRF, phosphorylation of biotinylated peptide), JAK2; format: biochemical
T2 construct: Jak2 (a.a. 828-1132); His tag (N); made in house; host or cells: insect cells (baculovirus)
T2 sequence (O60674 828-1132): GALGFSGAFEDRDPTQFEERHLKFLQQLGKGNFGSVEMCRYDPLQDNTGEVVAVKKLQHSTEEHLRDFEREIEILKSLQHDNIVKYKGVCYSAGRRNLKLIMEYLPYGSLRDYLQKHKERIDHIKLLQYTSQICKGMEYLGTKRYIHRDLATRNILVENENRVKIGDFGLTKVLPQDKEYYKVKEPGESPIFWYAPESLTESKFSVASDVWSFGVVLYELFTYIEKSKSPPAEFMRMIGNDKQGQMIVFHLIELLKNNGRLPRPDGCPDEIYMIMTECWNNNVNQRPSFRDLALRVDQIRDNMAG
Protocol: as §1

[3] = 1 mM ATP, Examples 92-162, read-out: JAK1 IC50 (nM) @ 1 mM ATP
[4] = 1 mM ATP, Examples 92-162, read-out: JAK2 IC50 (nM) @ 1 mM ATP
[5] = 1 mM ATP, Examples 12-91, read-out: JAK1 IC50 (nM) @ 1 mM ATP
[6] = 1 mM ATP, Examples 12-91, read-out: JAK2 IC50 (nM) @ 1 mM ATP

IC50 [1, 3] [nM]	IC50 [2, 4] [nM]	IC50 [1, 5] [nM]	IC50 [2, 6] [nM]	Compound	further results
< 20	50 to 100			Cc1ccccc1S(=O)(=O)N1CCCN(CC(CC#N)n2cc(-c3ncnc4[nH]ccc34)cn2)CC1 (stereo not shown) [Example 108, 4-{4-[(2-methylphenyl)sulfonyl]-1,4-diazepan-1-yl}-3-[4-(7H-pyrrolo[2,3-d]pyrimidin-4-yl)-1H-pyrazol-1-yl]butanenitrile]	
		< 10	< 10	N#CCC(CN1CCN(S(=O)(=O)c2cccs2)CC1)n1cc(-c2ncnc3[nH]ccc23)cn1 (stereo not shown) [Example 67, 3-(4-(7H-pyrrolo[2,3-d]pyrimidin-4-yl)-1H-pyrazol-1-yl)-4-(4-(thiophen-2-ylsulfonyl)piperazin-1-yl)butanenitrile]	
20 to 50	> 100			CCC(CN1CCN(S(=O)(=O)c2cccc(C#N)c2)CC1)n1cc(-c2ncnc3[nH]ccc23)cn1 (stereo not shown) [Example 139, 3-(4-(2-(4-(7H-pyrrolo[2,3-d]pyrimidin-4-yl)-1H-pyrazol-1-yl)butyl)piperazin-1-ylsulfonyl)benzonitrile]	
< 20	> 100			Cc1c(Nc2cc(F)ccc2F)ncnc1N1CCC(C(CC#N)n2cc(-c3ncnc4[nH]ccc34)cn2)CC1 (stereo not shown) [Example 149, 3-(4-(7H-pyrrolo[2,3-d]pyrimidin-4-yl)-1H-pyrazol-1-yl)-3-(1-(6-(2,5-difluorophenylamino)-5-methylpyrimidin-4-yl)piperidin-4-yl)propanenitrile]	
20 to 50	> 100			N#CCC(CN1CCCN(C(=O)c2ccc(O)cc2F)CC1)n1cc(-c2ncnc3[nH]ccc23)cn1 (stereo not shown) [Example 97, 4-[4-(2-fluoro-4-hydroxybenzoyl)-1,4-diazepan-1-yl]-3-[4-(7H-pyrrolo[2,3-d]pyrimidin-4-yl)-1H-pyrazol-1-yl]butanenitrile bis(trifluoroacetate)]	
< 20	50 to 100			Cc1c(Nc2c(F)cccc2F)ncnc1N1CCC(C(CC#N)n2cc(-c3ncnc4[nH]ccc34)cn2)CC1 (stereo not shown) [Example 154, 3-(4-(7H-pyrrolo[2,3-d]pyrimidin-4-yl)-1H-pyrazol-1-yl)-3-(1-(6-(2,6-difluorophenylamino)-5-methylpyrimidin-4-yl)piperidin-4-yl)propanenitrile]	
		< 10	< 10	Cc1cccc(S(=O)(=O)N2CCN(CC(CC#N)n3cc(-c4ncnc5[nH]ccc45)cn3)CC2)n1 (stereo not shown) [Example 64, 3-(4-(7H-pyrrolo[2,3-d]pyrimidin-4-yl)-1H-pyrazol-1-yl)-4-(4-(6-methylpyridin-2-ylsulfonyl)piperazin-1-yl)butanenitrile]	
		10 to 50	50 to 100	N#CCC(CN1CCN(C(=O)Nc2c(Cl)cccc2Cl)CC1)n1cc(-c2ncnc3[nH]ccc23)cn1 (stereo not shown) [Example 70, 4-(2-(4-(7H-pyrrolo[2,3-d]pyrimidin-4-yl)-1H-pyrazol-1-yl)-3-cyanopropyl)-N-(2,6-dichlorophenyl)piperazine-1-carboxamide]	
		< 10	< 10	N#CCC(CN1CCN(S(=O)(=O)c2ccc3[nH]ncc3c2)CC1)n1cc(-c2ncnc3[nH]ccc23)cn1 (stereo not shown) [Example 22, 4-[4-(1H-indazol-5-ylsulfonyl)piperazin-1-yl]-3-[4-(7H-pyrrolo[2,3-d]pyrimidin-4-yl)-1H-pyrazol-1-yl]butanenitrile]	
20 to 50	50 to 100			CCC(CN1CCN(S(=O)(=O)c2cn(C)c(C)n2)CC1)n1cc(-c2ncnc3[nH]ccc23)cn1 (stereo not shown) [Example 144, 4-(1-(1-(4-(1,2-dimethyl-1H-imidazol-4-ylsulfonyl)piperazin-1-yl)butan-2-yl)-1H-pyrazol-4-yl)-7H-pyrrolo[2,3-d]pyrimidine]	
		< 10	50 to 100	N#CCC(CN1CCN(C(=O)c2ccc(C#N)cc2F)CC1)n1ccc(-c2ncnc3[nH]ccc23)c1 (single isomer, unassigned) [Example 13, 4-[(4-{3-cyano-2-[3-(7H-pyrrolo[2,3-d]pyrimidin-4-yl)-1H-pyrrol-1-yl]propyl}piperazin-1-yl)carbonyl]-3-fluorobenzonitrile trifluoroacetate Salt]	
				N#CCC(CC1CCN(C(=O)c2ccc(F)cc2)CC1)n1cc(-c2ncnc3[nH]ccc23)cn1 (stereo not shown) [Example 8, 4-[1-(4-fluorobenzoyl)piperidin-4-yl]-3-[4-(7H-pyrrolo[2,3-d]pyrimidin-4-yl)-1H-pyrazol-1-yl]butanenitrile]	IC50 ([1]; Km ATP (90 μM for Jak1), Examples 1-11, read-out: IC50 (nM) @ Km ATP JAK1): < 10 nM; IC50 ([2]; 1 mM ATP, Examples 1-11, read-out: IC50 (nM) @ 1 mM ATP JAK2): < 10 nM; IC50 ([2]; Km ATP (30 μM for Jak2), Examples 1-11, read-out: IC50 (nM) @ Km ATP JAK2): < 10 nM
		< 10	10 to 50	N#CCC(CN1CCN(C(=O)c2cccs2)CC1)n1cc(-c2ncnc3[nH]ccc23)cn1 (stereo not shown) [Example 42, 3-(4-(7H-pyrrolo[2,3-d]pyrimidin-4-yl)-1H-pyrazol-1-yl)-4-(4-(thiophene-2-carbonyl)piperazin-1-yl)butanenitrile]	
		< 10	50 to 100	N#CCC(CN1CCN(C(=O)c2c(F)cc(C#N)cc2F)CC1)n1ccc(-c2ncnc3[nH]ccc23)c1 (stereo not shown) [Example 79, 4-(4-(2-(3-(7H-pyrrolo[2,3-d]pyrimidin-4-yl)-1H-pyrrol-1-yl)-3-cyanopropyl)piperazine-1-carbonyl)-3,5-difluorobenzonitrile trifluoroacetate salt]	
20 to 50	50 to 100			COc1ccc(OC)c(S(=O)(=O)N2CCCN(CC(CC#N)n3cc(-c4ncnc5[nH]ccc45)cn3)CC2)c1 (stereo not shown) [Example 111, 4-{4-[(2,5-dimethoxyphenyl)sulfonyl]-1,4-diazepan-1-yl}-3-[4-(7H-pyrrolo[2,3-d]pyrimidin-4-yl)-1H-pyrazol-1-yl]butanenitrile]	
		10 to 50	> 100	N#CCC(CN1CCN(C(=O)c2ncc(C#N)cc2F)CC1)n1ccc(-c2ncnc3[nH]ccc23)c1 (stereo not shown) [Example 87, 6-(4-(2-(3-(7H-pyrrolo[2,3-d]pyrimidin-4-yl)-1H-pyrrol-1-yl)-3-cyanopropyl)piperazine-1-carbonyl)-5-fluoronicotinonitrile]	
		> 100	> 100	C[C@@H]1CN(C(=O)c2ccc(C#N)cc2F)CCN1CC(CC#N)n1cc(-c2ncnc3[nH]ccc23)cn1 (single isomer, unassigned) [24, R-2]	
		10 to 50	> 100	N#CCC(CN1CCN(C(=O)c2ccc(C#N)cn2)CC1)n1cc(-c2ncnc3[nH]ccc23)cn1 (stereo not shown) [Example 20, 6-[(4-{3-cyano-2-[4-(7H-pyrrolo[2,3-d]pyrimidin-4-yl)-1H-pyrazol-1-yl]propyl}piperazin-1-yl)carbonyl]nicotinonitrile]	
20 to 50	> 100			CCC(CN1CCN(C(=O)c2ccc(F)cc2OC)CC1)n1cc(-c2ncnc3[nH]ccc23)cn1 (stereo not shown) [Example 125, (4-(2-(4-(7H-pyrrolo[2,3-d]pyrimidin-4-yl)-1H-pyrazol-1-yl)butyl)piperazin-1-yl)(4-fluoro-2-methoxyphenyl)methanone]	
		10 to 50	50 to 100	N#CCC(CN1CCN(C(=O)Nc2ccccc2OC(F)(F)F)CC1)n1cc(-c2ncnc3[nH]ccc23)cn1 (stereo not shown) [Example 75]	
< 20	50 to 100			CCC(CN1CCN(C(=O)c2ccc(O)cc2Cl)CC1)n1cc(-c2ncnc3[nH]ccc23)cn1 (stereo not shown) [Example 122, (4-(2-(4-(7H-pyrrolo[2,3-d]pyrimidin-4-yl)-1H-pyrazol-1-yl)butyl)piperazin-1-yl)(2-chloro-4-hydroxyphenyl)methanone]	
		< 10	10 to 50	N#CCC(CN1CCN(C(=O)c2cc(F)cc(Cl)c2)CC1)n1cc(-c2ncnc3[nH]ccc23)cn1 (stereo not shown) [Example 46, 3-(4-(7H-pyrrolo[2,3-d]pyrimidin-4-yl)-1H-pyrazol-1-yl)-4-(4-(3-chloro-5-fluorobenzoyl)piperazin-1-yl)butanenitrile trifluoroacetate salt]	
< 20	50 to 100			CCC(CN1CCN(S(=O)(=O)c2ccc(F)cc2)CC1)n1cc(-c2ncnc3[nH]ccc23)cn1 (stereo not shown) [Example 137, 4-(1-(1-(4-(4-fluorophenylsulfonyl)piperazin-1-yl)butan-2-yl)-1H-pyrazol-4-yl)-7H-pyrrolo[2,3-d]pyrimidine]	
		< 10	< 10	N#CCC(CN1CCN(C(=O)c2ccc(F)cc2F)CC1)n1cc(-c2ncnc3[nH]ccc23)cn1 (stereo not shown) [Example 30, 3-(4-(7H-pyrrolo[2,3-d]pyrimidin-4-yl)-1H-pyrazol-1-yl)-4-(4-(2,4-difluorobenzoyl)piperazin-1-yl)butanenitrile]	
